Results as given in patent US11981658B2, “Substituted aminopyridine compounds as EGFR inhibitors” (YUHAN CORPORATION, priority 2021, dated 2024).
Like-named read-outs stand apart in the source and are kept apart here.

Tests used:
EGFR L858R/T790M/C797S = EGFR L858R/T790M/C797S (Homo sapiens, UniProt P00533, C797S/L858R/T790M); test: Biochemical EGFR kinase inhibition assay (Lance Ultra TR-FRET), triple mutant L858R/T790M/C797S
In short: (§1)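 Kinase activity is measured by TR-FRET phosphopeptide detection. Compounds span 0.003 μM to 10 μM; the 1 h reaction at room temperature is quenched with EDTA, then labelled antibody (2 nM) is incubated 60 min before reading.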

EGFR Del19/C797S = EGFR Del19/C797S (Homo sapiens, UniProt P00533, C797S/DEL746-750); test: Biochemical EGFR kinase inhibition assay (Lance Ultra TR-FRET), double mutant del19/C797S
In short: as §1

EGFR L858R/C797S = EGFR L858R/C797S (Homo sapiens, UniProt P00533, C797S/L858R); test: Biochemical EGFR kinase inhibition assay (Lance Ultra TR-FRET), double mutant L858R/C797S
In short: as §1

EGFR Del19/T790M/C797S = EGFR Del19/T790M/C797S (Homo sapiens, UniProt P00533, C797S/DEL746-750/T790M); test: Biochemical EGFR kinase inhibition assay (Lance Ultra TR-FRET), triple mutant del19/T790M/C797S
In short: as §1

EGFR wildtype (WT) = EGFR wildtype (WT) (Homo sapiens, UniProt P00533); test: Biochemical EGFR kinase inhibition assay (Lance Ultra TR-FRET), wildtype
In short: as §1

[1] = IC50 L858R/T790M/C797S (nM), 100 μM ATP
[2] = Km ATP, read-out: IC50 L858R/T790M/C797S (nM), Km ATP
[3] = IC50 Del19/C797S (nM), 100 μM ATP
[4] = Km ATP, read-out: IC50 Del19/C797S (nM), Km ATP
[5] = IC50 L858R/C797S (nM), 100 μM ATP
[6] = Km ATP, read-out: IC50 L858R/C797S (nM), Km ATP
[7] = IC50 Del19/T790M/C797S (nM), 100 μM ATP
[8] = Km ATP, read-out: IC50 Del19/T790M/C797S (nM), Km ATP
[9] = Km ATP, read-out: IC50 WT (nM), Km ATP

Sequence of EGFR Del19/T790M/C797S (P00533 with tags, fused parts or gaps DEL746-750/T790M/C797S): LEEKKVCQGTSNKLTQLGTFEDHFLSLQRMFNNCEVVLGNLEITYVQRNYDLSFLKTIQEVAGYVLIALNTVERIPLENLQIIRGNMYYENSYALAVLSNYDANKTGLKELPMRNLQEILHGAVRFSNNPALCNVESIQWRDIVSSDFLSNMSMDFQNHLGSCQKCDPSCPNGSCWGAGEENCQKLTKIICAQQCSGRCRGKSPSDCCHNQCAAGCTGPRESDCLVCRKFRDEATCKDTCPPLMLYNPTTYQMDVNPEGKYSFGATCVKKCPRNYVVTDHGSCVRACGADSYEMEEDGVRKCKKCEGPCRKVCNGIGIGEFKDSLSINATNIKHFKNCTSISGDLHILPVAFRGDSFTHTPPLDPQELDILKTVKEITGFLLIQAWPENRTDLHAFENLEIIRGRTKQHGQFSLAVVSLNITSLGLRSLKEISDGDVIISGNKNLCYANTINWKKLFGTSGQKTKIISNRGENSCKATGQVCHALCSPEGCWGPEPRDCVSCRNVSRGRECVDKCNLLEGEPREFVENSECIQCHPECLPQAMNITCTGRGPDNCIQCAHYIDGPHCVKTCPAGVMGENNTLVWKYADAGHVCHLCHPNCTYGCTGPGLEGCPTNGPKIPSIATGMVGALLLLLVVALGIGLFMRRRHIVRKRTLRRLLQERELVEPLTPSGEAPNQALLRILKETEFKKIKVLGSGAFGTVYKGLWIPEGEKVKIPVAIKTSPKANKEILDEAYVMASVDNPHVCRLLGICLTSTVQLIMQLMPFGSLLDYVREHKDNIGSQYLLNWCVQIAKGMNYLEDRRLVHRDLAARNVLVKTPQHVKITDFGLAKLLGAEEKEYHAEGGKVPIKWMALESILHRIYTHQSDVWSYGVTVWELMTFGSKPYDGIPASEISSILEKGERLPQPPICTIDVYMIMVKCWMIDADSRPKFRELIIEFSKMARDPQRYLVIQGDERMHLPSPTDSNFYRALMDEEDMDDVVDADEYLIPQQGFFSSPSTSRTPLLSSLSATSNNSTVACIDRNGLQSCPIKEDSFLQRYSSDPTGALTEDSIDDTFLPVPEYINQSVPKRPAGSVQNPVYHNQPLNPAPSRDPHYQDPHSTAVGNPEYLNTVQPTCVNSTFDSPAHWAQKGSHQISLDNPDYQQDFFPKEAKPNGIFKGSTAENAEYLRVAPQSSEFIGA
Sequence of EGFR L858R/C797S (P00533 25-1210 C797S/L858R): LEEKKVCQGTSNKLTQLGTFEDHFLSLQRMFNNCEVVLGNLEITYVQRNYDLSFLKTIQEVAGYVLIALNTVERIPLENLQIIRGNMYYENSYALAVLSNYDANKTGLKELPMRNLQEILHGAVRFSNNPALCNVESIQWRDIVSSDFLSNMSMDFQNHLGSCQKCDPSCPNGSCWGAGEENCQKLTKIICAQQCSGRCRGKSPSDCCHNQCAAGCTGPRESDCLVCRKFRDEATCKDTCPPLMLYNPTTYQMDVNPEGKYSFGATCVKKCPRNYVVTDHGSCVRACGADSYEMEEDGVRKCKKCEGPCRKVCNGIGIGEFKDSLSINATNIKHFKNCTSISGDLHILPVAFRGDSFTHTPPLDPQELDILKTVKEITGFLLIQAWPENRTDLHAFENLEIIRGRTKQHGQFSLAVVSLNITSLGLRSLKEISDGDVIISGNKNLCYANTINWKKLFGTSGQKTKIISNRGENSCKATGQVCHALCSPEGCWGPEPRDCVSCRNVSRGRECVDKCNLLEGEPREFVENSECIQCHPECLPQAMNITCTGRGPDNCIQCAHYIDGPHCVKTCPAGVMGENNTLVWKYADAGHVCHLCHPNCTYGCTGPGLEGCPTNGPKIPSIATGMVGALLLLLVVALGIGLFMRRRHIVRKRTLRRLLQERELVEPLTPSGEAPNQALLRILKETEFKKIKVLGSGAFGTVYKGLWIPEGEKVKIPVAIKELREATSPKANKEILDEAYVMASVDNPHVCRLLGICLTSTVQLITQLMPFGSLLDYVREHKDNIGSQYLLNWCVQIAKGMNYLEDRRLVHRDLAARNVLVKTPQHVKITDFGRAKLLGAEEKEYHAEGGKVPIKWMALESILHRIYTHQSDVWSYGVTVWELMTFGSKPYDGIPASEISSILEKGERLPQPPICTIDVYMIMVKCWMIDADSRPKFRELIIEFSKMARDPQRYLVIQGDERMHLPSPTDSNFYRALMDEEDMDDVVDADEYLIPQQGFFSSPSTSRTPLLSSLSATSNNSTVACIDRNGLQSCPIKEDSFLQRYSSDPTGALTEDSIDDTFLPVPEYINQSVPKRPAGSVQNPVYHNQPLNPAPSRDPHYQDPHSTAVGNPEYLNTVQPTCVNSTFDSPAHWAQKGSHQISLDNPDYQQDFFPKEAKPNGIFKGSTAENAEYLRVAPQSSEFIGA
Sequence of EGFR Del19/C797S (P00533 with tags, fused parts or gaps DEL746-750/C797S): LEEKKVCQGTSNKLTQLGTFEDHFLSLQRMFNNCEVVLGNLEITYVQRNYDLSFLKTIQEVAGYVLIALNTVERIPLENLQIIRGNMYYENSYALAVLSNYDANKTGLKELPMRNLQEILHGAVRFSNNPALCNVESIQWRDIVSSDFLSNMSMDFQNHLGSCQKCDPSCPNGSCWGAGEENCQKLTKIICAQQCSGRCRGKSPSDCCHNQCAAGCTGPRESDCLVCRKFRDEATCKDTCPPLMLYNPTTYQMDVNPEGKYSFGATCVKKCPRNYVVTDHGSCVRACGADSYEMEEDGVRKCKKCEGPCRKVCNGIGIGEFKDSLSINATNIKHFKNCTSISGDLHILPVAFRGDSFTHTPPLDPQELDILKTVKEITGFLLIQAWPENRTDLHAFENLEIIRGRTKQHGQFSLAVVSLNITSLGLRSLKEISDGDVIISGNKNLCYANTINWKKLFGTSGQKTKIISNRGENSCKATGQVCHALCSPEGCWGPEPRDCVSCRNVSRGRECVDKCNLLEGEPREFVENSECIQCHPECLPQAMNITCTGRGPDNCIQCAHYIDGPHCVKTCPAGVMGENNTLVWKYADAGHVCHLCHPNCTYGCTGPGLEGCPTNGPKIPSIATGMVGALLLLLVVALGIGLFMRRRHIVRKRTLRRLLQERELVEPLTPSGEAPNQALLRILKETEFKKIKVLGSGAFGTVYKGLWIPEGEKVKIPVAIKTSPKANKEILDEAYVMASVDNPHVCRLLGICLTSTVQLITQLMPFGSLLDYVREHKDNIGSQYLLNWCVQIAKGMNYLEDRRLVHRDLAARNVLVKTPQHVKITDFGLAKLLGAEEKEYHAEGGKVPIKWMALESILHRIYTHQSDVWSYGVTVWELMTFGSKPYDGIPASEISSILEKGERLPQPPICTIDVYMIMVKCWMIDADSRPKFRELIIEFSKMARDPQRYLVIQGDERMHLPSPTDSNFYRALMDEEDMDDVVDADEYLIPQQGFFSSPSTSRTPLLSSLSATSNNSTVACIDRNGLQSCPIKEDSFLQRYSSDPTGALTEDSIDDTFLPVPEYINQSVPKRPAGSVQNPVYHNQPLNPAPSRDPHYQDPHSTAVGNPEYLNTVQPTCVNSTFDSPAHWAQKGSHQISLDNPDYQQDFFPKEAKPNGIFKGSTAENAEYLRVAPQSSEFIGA
Sequence of EGFR L858R/T790M/C797S (P00533 25-1210 T790M/C797S/L858R): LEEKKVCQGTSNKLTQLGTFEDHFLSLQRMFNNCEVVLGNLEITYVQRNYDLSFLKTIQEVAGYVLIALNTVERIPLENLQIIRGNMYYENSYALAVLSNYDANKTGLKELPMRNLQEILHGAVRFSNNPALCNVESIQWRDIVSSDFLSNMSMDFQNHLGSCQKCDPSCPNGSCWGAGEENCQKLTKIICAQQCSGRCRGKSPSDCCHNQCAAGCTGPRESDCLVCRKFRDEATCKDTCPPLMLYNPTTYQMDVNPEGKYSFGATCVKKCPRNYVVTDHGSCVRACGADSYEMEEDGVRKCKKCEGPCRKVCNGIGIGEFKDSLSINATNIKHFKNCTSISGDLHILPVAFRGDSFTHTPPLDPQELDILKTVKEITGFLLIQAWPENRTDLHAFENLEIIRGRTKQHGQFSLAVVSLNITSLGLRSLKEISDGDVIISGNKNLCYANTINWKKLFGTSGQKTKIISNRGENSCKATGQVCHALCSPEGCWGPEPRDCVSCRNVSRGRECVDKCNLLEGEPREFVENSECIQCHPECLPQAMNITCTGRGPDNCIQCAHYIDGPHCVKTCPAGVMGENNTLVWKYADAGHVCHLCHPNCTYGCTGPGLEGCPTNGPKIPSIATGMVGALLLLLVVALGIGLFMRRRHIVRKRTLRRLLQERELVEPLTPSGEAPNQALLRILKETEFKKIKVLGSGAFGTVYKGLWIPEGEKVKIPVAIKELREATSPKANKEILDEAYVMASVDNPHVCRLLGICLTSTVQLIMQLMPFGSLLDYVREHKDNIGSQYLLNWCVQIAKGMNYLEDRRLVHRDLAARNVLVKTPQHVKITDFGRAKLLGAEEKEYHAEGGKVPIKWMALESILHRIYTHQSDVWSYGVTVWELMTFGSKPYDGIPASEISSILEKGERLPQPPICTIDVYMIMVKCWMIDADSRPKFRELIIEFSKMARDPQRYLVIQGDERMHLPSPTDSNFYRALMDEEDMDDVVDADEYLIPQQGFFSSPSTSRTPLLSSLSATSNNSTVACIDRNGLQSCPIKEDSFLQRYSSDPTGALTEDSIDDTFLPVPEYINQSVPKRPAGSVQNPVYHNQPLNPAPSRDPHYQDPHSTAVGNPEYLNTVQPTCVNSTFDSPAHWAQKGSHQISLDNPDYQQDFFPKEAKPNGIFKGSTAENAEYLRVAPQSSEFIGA

| Compound | IC50 (EGFR L858R/T790M/C797S; [1]) | IC50 (EGFR L858R/T790M/C797S; [2]) | IC50 (EGFR Del19/C797S; [3]) | IC50 (EGFR Del19/C797S; [4]) | IC50 (EGFR L858R/C797S; [5]) | IC50 (EGFR L858R/C797S; [6]) | IC50 (EGFR Del19/T790M/C797S; [7]) | IC50 (EGFR Del19/T790M/C797S; [8]) | IC50 (EGFR wildtype (WT); IC50 WT (nM), 100 μM ATP) | IC50 (EGFR wildtype (WT); [9]) |
| --- | --- | --- | --- | --- | --- | --- | --- | --- | --- | --- |
| CC1OCCC1C#Cc1cnc(Nc2ccnc(-c3cnn(S(=O)(=O)C4CC4)c3)n2)cc1NC1CCC(CO)CC1 (stereo not drawn) [Example 430, ((1s,4s)-4-((2-((2-(1-(Cyclopropylsulfonyl)-1H-pyrazol-4-yl)pyrimidin-4-yl)amino)-5-((2-methyltetrahydrofuran-3-yl)ethynyl)pyridin-4-yl)amino)cyclohexyl)methanol] | 0.9 nM | 0.3 nM | 3.8 nM | 1.3 nM | 107 nM | 4.3 nM | 1 nM | 0.6 nM | 7480 nM | 6.9 nM |
| CC1OCCC1C#Cc1cnc(Nc2ccnc(-c3cnn(S(=O)(=O)C4CC4)c3)n2)cc1NCC1CCC(O)CC1 (stereo not drawn) [Example 431, (1 r,4r)-4-(((2-((2-(1-(Cyclopropylsulfonyl)-1H-pyrazol-4-yl)pyrimidin-4-yl)amino)-5-((2-methyltetrahydrofuran-3-yl)ethynyl)pyridin-4-yl)amino)methyl)cyclohexan-1-ol] | 4.7 nM | 1 nM | 78.1 nM |  | 2090 nM |  | 2.7 nM | 1.2 nM | > 10000 nM |  |
| CC1OCCC1C#Cc1cnc(Nc2ccnc(-c3cnn(S(=O)(=O)C4CC4)c3)n2)cc1N1CCC(C)(O)CC1 (stereo not drawn) [Example 432, 1-(2-((2-(1-(Cyclopropylsulfonyl)-1H-pyrazol-4-yl)pyrimidin-4-yl)amino)-5-((2-methyltetrahydrofuran-3-yl)ethynyl)pyridin-4-yl)-4-methylpiperidin-4-ol] | 0.7 nM | 0.3 nM | 5.2 nM | 3.1 nM | 141 nM | 5.3 nM | 0.6 nM | 0.4 nM | > 10000 nM | 11.4 nM |
| CC1OCCC1C#Cc1cnc(Nc2ccnc(-c3cnn(S(=O)(=O)C4CC4)c3)n2)cc1NC1CCC(O)CC1 (stereo not drawn) [Example 433, (1 s,4s)-4-((2-((2-(1-(cyclopropylsulfonyl)-1H-pyrazol-4-yl)pyrimidin-4-yl)amino)-5-((2-methyltetrahydrofuran-3-yl)ethynyl)pyridin-4-yl)amino)cyclohexan-1-ol] | 0.7 nM | 0.2 nM | 3.2 nM | 1 nM | 90.8 nM | 4 nM | 0.5 nM | 0.4 nM | 8720 nM | 7.7 nM |
| O=S(=O)(C1CC1)n1cc(-c2nccc(Nc3cc(NC4CCC(CO)CC4)c(C#CC4(F)CCOC4)cn3)n2)cn1 (stereo not drawn) [Example 434, ((1s,4s)-4-((2-((2-(1-(Cyclopropylsulfonyl)-1H-pyrazol-4-yl)pyrimidin-4-yl)amino)-5-((3-fluorotetrahydrofuran-3-yl)ethynyl)pyridin-4-yl)amino)cyclohexyl)methanol] | 0.5 nM | 0.2 nM | 5.2 nM | 2.3 nM | 125 nM | 2.4 nM | 0.3 nM | 0.4 nM | 8890 nM | 21.2 nM |
| CC1(O)CCN(c2cc(Nc3ccnc(-c4cnn(S(=O)(=O)C5CC5)c4)n3)ncc2C#CC2(F)CCOC2)CC1 (stereo not drawn) [Example 435, 1-(2-((2-(1-(Cyclopropylsulfonyl)-1H-pyrazol-4-yl)pyrimidin-4-yl)amino)-5-((3-fluorotetrahydrofuran-3-yl)ethynyl)pyridin-4-yl)-4-methylpiperidin-4-ol] | 0.3 nM | 0.1 nM | 2.9 nM | 1.3 nM | 66.6 nM | 2 nM | 0.2 nM | 0.2 nM | 8720 nM | 14.2 nM |
| O=S(=O)(C1CC1)n1cc(-c2nccc(Nc3cc(NC4CCC(O)CC4)c(C#CC4(F)CCOC4)cn3)n2)cn1 (stereo not drawn) [Example 436, (1s,4s)-4-((2-((2-(1-(Cyclopropylsulfonyl)-1H-pyrazol-4-yl)pyrimidin-4-yl)amino)-5-((3-fluorotetrahydrofuran-3-yl)ethynyl)pyridin-4-yl)amino)cyclohexan-1-ol] | 0.3 nM | 0.1 nM | 3.1 nM | 1.7 nM | 111 nM | 2.5 nM | 0.2 nM | 0.1 nM | > 10000 nM | 12.5 nM |
| CC1(CO)CCN(c2cc(Nc3ccnc(-c4cnn(S(=O)(=O)C5CC5)c4)n3)ncc2C#CC2CCS(=O)(=O)C2)CC1 (stereo not drawn) [Example 437, 3-((6-((2-(1-(Cyclopropylsulfonyl)-1H-pyrazol-4-yl)pyrimidin-4-yl)amino)-4-(4-(hydroxymethyl)-4-methylpiperidin-1-yl)pyridin-3-yl)ethynyl)tetrahydrothiophene 1,1-dioxide] | 0.1 nM | 0.1 nM | 1.3 nM | 0.6 nM | 39.3 nM | 0.8 nM | 0.1 nM | 0.1 nM | > 10000 nM | 3.7 nM |
| CC1OCCC1C#Cc1cnc(Nc2ccnc(-c3cnn(S(=O)(=O)C4CC4)c3)n2)cc1N1CCC(C)(CO)CC1 (stereo not drawn) [Example 438, (1-(2-((2-(1-(Cyclopropylsulfonyl)-1H-pyrazol-4-yl)pyrimidin-4-yl)amino)-5-((2-methyltetrahydrofuran-3-yl)ethynyl)pyridin-4-yl)-4-methylpiperidin-4-yl)methanol] | 0.7 nM | 0.2 nM | 3.3 nM | 1.7 nM | 85.5 nM | 1.9 nM | 0.3 nM | 0.3 nM | 6420 nM | 5.8 nM |
| O=S(=O)(C1CC1)n1cc(-c2nccc(Nc3cc(N4CCC[C@H](O)C4)c(C#Cc4cnn(C(F)(F)F)c4)cn3)n2)cn1 [Example 439, (S)-1-(2-((2-(1-(Cyclopropylsulfonyl)-1H-pyrazol-4-yl)pyrimidin-4-yl)amino)-5-((1-(trifluoromethyl)-1H-pyrazol-4-yl)ethynyl)pyridin-4-yl)piperidin-3-ol] | 3.7 nM | 1.3 nM | 24.5 nM | 12.5 nM | 62.7 nM | 11.1 nM | 1.7 nM | 2.1 nM | > 10000 nM | 122 nM |
| O=S(=O)(C1CC1)n1cc(-c2nccc(Nc3cc(N4CCC[C@@H](O)C4)c(C#Cc4cnn(CCF)c4)cn3)n2)cn1 [Example 440, (R)-1-(2-((2-(1-(Cyclopropylsulfonyl)-1H-pyrazol-4-yl)pyrimidin-4-yl)amino)-5-((1-(2-fluoroethyl)-1H-pyrazol-4-yl)ethynyl)pyridin-4-yl)piperidin-3-ol] | 1.3 nM | 0.5 nM | 9.7 nM | 7.6 nM | 61.5 nM | 10.3 nM | 0.5 nM | 0.5 nM | > 10000 nM | 48.4 nM |
| O=C(c1ccc(C#Cc2cnc(Nc3ccnc(-c4cnn(S(=O)(=O)C5CC5)c4)n3)cc2N[C@H]2CC[C@@H](CO)CC2)cc1)N1CCC(O)CC1 [Example 441, (4-((6-((2-(1-(Cyclopropylsulfonyl)-1H-pyrazol-4-yl)pyrimidin-4-yl)amino)-4-(((ls, 4s)-4-(hydroxymethyl)cyclohexyl)amino)pyridin-3-yl)ethynyl)phenyl)(4-hydroxypiperidin-1-yl)methanone] | 0.8 nM | 0.5 nM | 2.3 nM |  | 47.1 nM |  | 2.2 nM | 2.1 nM | > 10000 nM |  |
